In ChEMBL document CHEMBL6153037, “Developing dual-responsive quinolinium prodrugs of 8-hydroxyquinoline by harnessing the dual chelating sites” (Eur J Med Chem, 2025):
pIC50: −log10 of the molar value. The source made the active and inactive calls. The calls are words filed in the database; no cut-off is given here.

What was measured:
[1] = test system: MCF-10A; experiment: Inhibition of mitochondrial membrane potential in human MCF-10A cells assessed as increase in green fluorescence at 0.8 uM incubated for 24 hrs by JC-1 dye based analysis; type: toxicity, cell-based
[2] = test system: MDA-MB-231; experiment: Antitumor activity against human MDA-MB-231 cells xenografted in BALB/c nude mouse at 20 mg/kg, iv administered every two days for 21 days relative to control; type: functional; settings: MDA-MB-231, 504 h, time 21 day, read-out: TGI
[3] = test system: MDA-MB-231; experiment: Induction of cell cycle arrest in human MDA-MB-231 cells assessed as accumulation at G0/G1 phase at 0.4 uM by PI staining based flow cytometry (reference value: 64.6 %); type: functional
[4] = Stability of compound in PBS at pH 7.4 containing H2O2 assessed as compound remaining at 50 uM measured after 30 mins by HPLC analysis; type: physicochemical; settings: buffer, pH 7.4, 0.5 h
[5] = test system: MDA-MB-231; experiment: Induction of apoptosis in human MDA-MB-231 cells assessed as necrotic cells at 0.8 uM incubated for 24 hrs by Annexin V-FITC/PI staining based flow cytometry (reference value: 0.59 %); type: functional
[6] = test system: HeLa; experiment: Cytotoxicity against CuCl2-treated human HeLa cells assessed as inhibition of cell viability incubated for 48 hrs by MTT assay; type: functional, cell-based
[7] = test system: MDA-MB-231; experiment: Inhibition of DNA synthesis in human MDA-MB-231 cells by EdU incorporation assay; type: functional, cell-based
[8] = test system: MDA-MB-231; experiment: Induction of apoptosis in human MDA-MB-231 cells assessed as viable cells at 0.8 uM incubated for 24 hrs by Annexin V-FITC/PI staining based flow cytometry (reference value: 86.2 %); type: functional; settings: read-out: Activity
[9] = test system: MDA-MB-231; experiment: Induction of apoptosis in human MDA-MB-231 cells assessed as viable cells at 0.4 uM incubated for 24 hrs by Annexin V-FITC/PI staining based flow cytometry (reference value: 86.2 %); type: functional; settings: read-out: Activity
[10] = test system: MDA-MB-231; experiment: Induction of apoptosis in human MDA-MB-231 cells assessed as necrotic cells at 0.4 uM incubated for 24 hrs by Annexin V-FITC/PI staining based flow cytometry (reference value: 0.59 %); type: functional
[11] = Prodrug conversion in PBS at pH 7.4 containing H2O2 assessed as 8-HQ release by measuring retention time at 50 uM measured after 15 mins by HPLC analysis; type: ADME; settings: buffer, pH 7.4, 0.25 h
[12] = test system: MDA-MB-231; experiment: Inhibition of mitochondrial membrane potential in human MDA-MB-231 cells assessed as increase in green fluorescence at 0.8 uM incubated for 24 hrs by JC-1 dye based analysis; type: functional, cell-based
[13] = Cytotoxicity against human MCF-10A cells assessed as cell survival at 10 uM incubated for 48 hrs by MTT assay relative to control; type: toxicity, cell-based; settings: read-out: Survival
[14] = Prodrug conversion in solution containing Cu(II) assessed as 8-HQ-Cu(II) complex formation at 50 uM measured upto 30 mins by UV-Vis spectrophotometry; type: ADME; settings: 0.5 h
[15] = Prodrug conversion in solution containing ONOO- assessed as 8-HQ release; type: ADME
[16] = test system: MCF-10A; experiment: Induction of apoptosis in human MCF-10A cells assessed as late apoptotic cells at 0.4 uM incubated for 24 hrs by Annexin V-FITC/PI staining based flow cytometry (reference value: 3.13 %); type: toxicity, cell-based
[17] = test system: MDA-MB-231; experiment: Anti-migration activity in human MDA-MB-231 cells at 0.8 uM incubated for 48 hrs by wound healing assay (reference value: 65.2 %); type: functional
[18] = test system: MDA-MB-231; experiment: Induction of cell cycle arrest in human MDA-MB-231 cells assessed as accumulation at G0/G1 phase at 0.8 uM by PI staining based flow cytometry (reference value: 64.6 %); type: functional
[19] = test system: MDA-MB-231; experiment: Anti-migration activity in human MDA-MB-231 cells at 0.8 uM incubated for 24 hrs by wound healing assay (reference value: 45.4 %); type: functional
[20] = test system: MDA-MB-231; experiment: Cytotoxicity against LPS-treated human MDA-MB-231 cells incubated for 48 hrs by MTT assay; type: functional, cell-based
[21] = test system: MDA-MB-231; experiment: Induction of apoptosis in human MDA-MB-231 cells assessed as early apoptotic cells at 0.4 uM incubated for 24 hrs by Annexin V-FITC/PI staining based flow cytometry (reference value: 7.39 %); type: functional
[22] = test system: MCF-10A; experiment: Inhibition of mitochondrial membrane potential in human MCF-10A cells assessed as decrease in ATP level at 0.4 to 0.8 uM incubated for 24 hrs by luminescence based analysis; type: toxicity, cell-based; settings: dose 0.4-0.8 µM
[23] = Toxicity in BALB/c nude mouse xenografted with human MDA-MB-231 cells assessed as body weight change at 10 to 20 mg/kg, iv administered every two days for 21 days; type: organism-based; settings: in vivo, 504 h, dose 10-20 mg/kg, time 21 day
[24] = test system: A549; experiment: Cytotoxicity against CuCl2-treated human A549 cells assessed as inhibition of cell viability incubated for 48 hrs by MTT assay; type: functional, cell-based; settings: A549, 48 h

Structure (SMILES): CC1(C)OB(c2ccc(C[n+]3cccc4cccc(O)c43)cc2)OC1(C)C.[Br-]
- Activity [1]: Non-toxic
- inhibition in vivo at 20 mg/kg [2]: 63.1%
- Activity [3]: 68.1%
- Stability [4]: Unstable
- Activity [5]: 7.08%
- pIC50 [6]: 4.95
- inhibition [7]: Active
- viability at 0.8 µM [8]: 24.8%
- viability at 0.4 µM [9]: 71.2%
- Activity [10]: 1.47%
- Retention_time [11]: 2.8 min
- inhibition [12]: Active
- viability at 48 h, 10 µM [13]: 86%
- Drug metabolism [14]: metabolite_detected
- Drug metabolism [15]: metabolite_detected
- Activity [16]: 2.74%
- Activity [17]: 12.8%
- Activity [18]: 74.2%
- Activity [19]: 7.3%
- Activity [20]: Active
- Activity [21]: 14.2%
- Activity [22]: Non-toxic
- Activity [23]: Non-toxic
- pIC50 [24]: 5.46
